Where a SMILES comes first, the peptide text is derived from it. Bridges are numbered along the chain shown (N, C = ends). [ ]: non-standard residue; d: D form. The star is where a group is joined. Ileψ(thiazoline)Cys = CC[C@H](C)[C@H](N)C1=N[C@H](C(=O)*)CS1; dOrn = NCCC[C@@H](N)C(=O)O
system: sigW mutant; assay: sigW mutant tested for increased sensitivity to chemical insults (zones of inhibition); assay type: cell-based, Bacillus subtilis; conditions: sigW mutant strain tested for increased sensitivity to a variety of chemical insults
Text: Identification of members of the σ^W regulon allows prediction of the phenotypes likely to be associated with a sigW mutation. A sigW mutant strain is not grossly defective in any of the well-characterized processes associated with post-exponential phase, including sporulation, competence, and protein secretion. It has been previously reported that sigW transcription is not induced by a temperature shift from 37 to 50 degrees C. (Huang et al., 1998) and the same is true for the four tested members of the σ^W regulon (ydbS, yeaA, yxjI, ysdB). Since several members of the σ^W regulon encode enzymes with a predicted detoxification function (FIG. 3), a sigW mutant was tested for increased sensitivity to a variety of chemical insults.

Row | Compound | differences in the zones of inhibition
1 | O[C@H](CS)[C@H](O)CS (racemic) [dithiothreitol] | no differences
2 | OCCS [2-mercaptoethanol] | no differences
3 | O=C(O)CN(CCN(CC(=O)O)CC(=O)O)CC(=O)O [EDTA] | no differences
4 | [Fe+3] [Fe^3+] | no differences
5 | Cl [HCI] | no differences
6 | [Mn+2] [Mn^2+] | no differences
7 | [Na+].[OH-] [NAOH] | no differences
8 | [Cl-].[Na+] [NaCl] | no differences
9 | CC1(C)S[C@@H]2[C@H](NC(=O)[C@H](N)c3ccccc3)C(=O)N2[C@H]1C(=O)O [ampicillin] | no differences
10 | CC[C@H](C)[C@H](N)C1=N[C@H](C(=O)N[C@@H](CC(C)C)C(=O)N[C@H](CCC(=O)O)C(=O)N[C@H](C(=O)N[C@H]2CCCCNC(=O)[C@H](CC(N)=O)NC(=O)[C@@H](CC(=O)O)NC(=O)[C@H](Cc3cnc[nH]3)NC(=O)[C@@H](Cc3ccccc3)NC(=O)[C@H]([C@@H](C)CC)NC(=O)[C@@H](CCCN)NC2=O)[C@@H](C)CC)CS1 [bacitracin] ({Ileψ(thiazoline)Cys}-L[dE]IK[dOrn]I[dF]H[dD]N; lactam 4-C) | no differences
11 | O=C(N[C@H](CO)[C@H](O)c1ccc([N+](=O)[O-])cc1)C(Cl)Cl [chloramphenicol] | no differences
12 | OO [hydrogen peroxide] | no differences
13 | C[n+]1ccc(-c2cc[n+](C)cc2)cc1 [methyl viologen] | no differences
14 | CCCCCCCCCCCCOS(=O)(=O)[O-].[Na+] [sodium dodecyl sulfate] | no differences
15 | CN[C@@H]1[C@H](O)[C@H](NC)[C@H]2O[C@@]3(O)C(=O)C[C@@H](C)O[C@H]3O[C@@H]2[C@H]1O [spectinomycin] | no differences
16 | gentamicin sulfate | no differences
17 | lysozyme | no differences
18 | neomycin | no differences
19 | nisin | no differences
20 | polymyxins | no differences
